Test results reported in PMC10066226, “An ultra-high-throughput screen for the evaluation of peptide HLA-Binder interactions” (Scientific Reports, 2023).

target: model TCER IMAHiAff#1; test: BLI measurements (Octet RED384) of peptide-loaded disulfide-stabilized pHLA; type: binding; conditions: not given
Text: In order to confirm our results obtained from the ultra high throughput highSCORE measurements, we compared the KD values with the corresponding ones from BLI measurements (Fig. 4). The direct correlation between the two methods can be described as a hockey stick. Many peptides with single amino acid mutations show similar KD values as the WT peptide. This is especially the case for KD values obtained from the highSCORE measurements. Within the BLI data set, most of the library peptides show a higher KD value compared to the corresponding WT peptide (Fig. 4a). This relation results in a flat region within the correlation plot. All other peptide, with the exception of the ones highlighted with an arrow, show a good linear correlation between both data sets. It is important to note that while the spectroscopic principle behind BLI and highSCORE is similar, the experimental procedure is different. Using BLI, the pHLA complexes are bound to a sensor tip, which is dipped into a microtiter plate well containing the analyte. Thereafter, the sensor tip is wiggled within the well to ensure that the analyte is not depleted on the surface. In contrast, during a highSCORE measurement, the analyte is flushed over the microarray using a thin flow chamber. This makes the experimental procedure of a highSCORE measurement more similar to that of an SPR device. Consequently, differences in the KD values between BLI and highSCORE measurements are to be expected and might explain the shift in the overall distribution of the KD values (Fig. 4b). […] Since both measurement methods have their own advantages and disadvantages, it is difficult to tell which of the two methods provides the values that are closest to reality.
BLI measurements were performed on an Octet RED384 system using anti-Penta-His biosensors. In short, disulfide-stabilized molecules were refolded and peptide-loaded as previously described. All analytes or ligands were diluted to their final concentration in kinetics buffer (PBS, 0.1% BSA, 0.05% Tween-20) if not specified otherwise. All biosensors were hydrated for at least 10 minutes in kinetics buffer before use. Loadings and measurements were performed in 384 tilted well plates (Pall Fortébio) with at least 40 μ l at a 3 mm sensor offset. Plate temperature was set at 30 ^∘ C and shaker speed at 1000 rpm. To generate a baseline, sensors were dipped in kinetics buffer for 60 s before being loaded with 10 ug/ml of peptide loaded disulfide-stabilized pHLA for 120 s. Afterwards, a second 120 s baseline was recorded before a 60 s association and a 240 s dissociation phase. After individual measurements, sensors were regenerated using 10 mM Glycine pH 1.5 4 times for 5s each before another cycle was performed. 4 TCER concentrations (500nM, 158.1nM, 50nM and 15.8nM) were measured for each pHLA complex. A sensor loaded with an irrelevant pHLA was measured in line for reference sensor subtraction. All sensorgrams were analyzed using the OctetRED software “Data Analysis HT” version 11.0.0.50 (Pall Fortébio). Raw sensor data was aligned at the Y axis by aligning the data to the end of the baseline step, and inter-step correction was used to align the start of the dissociation to the end of the association phase. Savitzky-Golay filtering was applied. Resulting sensorgrams were then fitted using a 1:1 Langmuir kinetics binding model. In case of lower affinity binding events, the lower two concentrations were excluded from the fitting.

Row | Sequence | BLI_KD
1 | SLLQHLEGL [E7] | no fit
2 | SLLQHLDGL [D7] | no fit
3 | SLLQHLIFL [F8] | no fit
4 | SLLQHLIWL [W8] | no fit

same assay, conditions: std in a column of its own

Row | Sequence | BLI_KD
5 | SLLQHLWGL [W7] | no fit
6 | SLLQHPIGL [P6] | no fit
